Experimental data reported in article PMC11428593 (Antibiotics, 2024).
Converted amounts (≈) assume the structure as drawn. “And” between values parts separate entries of the source, which are not always exact repeats. Equal entries are not always repeated. “Also recorded” adds a separate entry of the source. Where two headings read alike, the source gives them in different places.

Tests used:
MRSA ATCC 33591 = experiment: MIC by broth microdilution (CLSI); type: cell-based; conditions: Staphylococcus aureus, MHB, 37 °C, 16 h
Source text: (§1) To assess the impact of the nitrogen position in our newly synthesized anaephene derivates, we analyzed their antimicrobial activities against various S. aureus strains, including ATCC 25,923 and the two methicillin-resistant S. aureus (MRSA) strains ATCC 33,591 and ATCC BAA-44. […] We determined the minimum inhibitory concentrations (MIC) of each of our compounds against the different bacterial strains by broth microdilution following the CLSI guidelines. As expected, all five compounds tested were completely ineffective against the Gram-negative P. aeruginosa strain ATCC 27,853 (Table 1).
(§2) The MIC values of the alkyl pyridinol derivatives against the S. aureus strain ATCC 25923, MRSA strains ATCC 33591, ATCC BAA-44, and USA300LAC, as well as the P. aeruginosa strain ATCC 27853, were determined by following the CLSI guidelines for the broth microdilution antibiotic sensitivity testing protocol. In brief, the overnight cultures were diluted into Mueller Hinton Broth (MHB) to a final inoculum concentration of 5 × 10^5 CFU/mL (O.D600nm = 0.00001) and dispensed into a 96-well polystyrene plate (Alkali Scientific, Fort Lauderdale, FL, USA). Alkyl pyridine compounds were diluted into inoculated MHB to the indicated concentrations from stock solutions that would allow for DMSO concentrations below 5%, resulting in a total volume of 200 μL per well. The plates were subsequently incubated at 37 °C for 16 h at 300 rpm. The MIC values, which are defined as the lowest compound concentration that inhibited growth, were determined from three biological replicates.

MRSA ATCC BAA-44 = experiment: MIC by broth microdilution (CLSI); type: cell-based; conditions: Staphylococcus aureus, MHB, 37 °C, 16 h
Source text: as §1, §2

P. aeruginosa ATCC 27853 = experiment: MIC by broth microdilution (CLSI); type: cell-based; conditions: Pseudomonas aeruginosa, ATCC27853, MHB, 37 °C, 16 h
Source text: as §1, §2

S. aureus ATCC 25923 = experiment: MIC by broth microdilution (CLSI); type: cell-based; conditions: Staphylococcus aureus, ATCC25923, MHB, 37 °C, 16 h
Source text: as §1, §2

MRSA USA300LAC [1] = experiment: MIC by broth microdilution (CLSI); type: cell-based, Staphylococcus aureus; conditions: Staphylococcus aureus; MRSA USA300LAC; MHB, 37 °C, 16 h; read-out: MIC
Description: as §2

MRSA USA300LAC [2] = experiment: Minimal bactericidal concentration (MBC); type: cell-based, Staphylococcus aureus; conditions: for MBC: Staphylococcus aureus, MRSA USA300LAC, concentration at which no CFUs were observed; for bactericidal or bacteriostatic effect: USA300LAC, in words
Description: In brief, 10 µL of each culture was serially diluted and plated onto prewarmed LB agar and incubated overnight at 37 °C under static conditions to observe the colony-forming units (CFUs). The concentration at which no CFUs were observed was recorded as the MBC.

[3] = test system: 3T3 mouse embryonic fibroblast cells; experiment: MTT cytotoxicity assay; type: cell-based; conditions: 3T3 cells; for IC50: Mus musculus, NIH3T3, 24 h
Description: To gauge the potential for toxicity of the new alkyl pyridinol derivates, we tested their cytotoxicity by examining the metabolic activity of 3T3 mouse embryonic fibroblast cells using the tetrazolium dye 3-(4,5-dimethylthiazol-2-yl)-2,5-diphenyltetrazolium bromide (MTT), as has been done before. The dye is reduced by NAD(P)H-dependent cellular oxidoreductases, resulting in the formation of the insoluble formazan with its purple color, which can be quantified. 3T3 cells were treated with different concentrations of the alkyl pyridinol compounds for 24 h, and the absorbance of the MTT-treated cell culture supernatant was measured at 540 nm. Absorbances were plotted against concentrations of the compound added (Supplementary Figure S2), and IC50, the concentration of a drug required for 50% metabolic inhibition, was calculated for each compound. […] However, the concentrations at which these compounds compromise 3T3 mouse embryonic fibroblast cells are well above their reported MICs (Table 2).
3T3 cells (male mouse embryonic fibroblast Flp-In cells, Thermo Fisher, Waltham, MA, USA) were cultured in D-MEM (Corning, Corning, NY, USA) supplemented with 10% Fetal Clone III (Cytiva Hyclone, Bengaluru, India) and L-Glutamine (Alfa Aesar, Haverhill, MA, USA) at 37 °C and 5% CO2. To determine the compound’s toxicity, 3T3 cells were seeded at a density of 10,000 cells/well into 96-well plates (Fisherbrand, Waltham, MA, USA) and cultured as described above. After 16 h, the culture medium was extracted and replaced by supplemented D-MEM without phenol red (Corning, Glendale, AZ, USA) containing individual compounds in the indicated concentrations. Furthermore, 1% sodium dodecyl sulfate (SDS) and 2% dimethyl sulfoxide (DMSO), equivalent to the volume of the DMSO in the highest compound concentration, were used as the cell death and vehicle control, respectively. Moreover, 16 h after compound treatment, the culture medium was extracted again and replaced by fresh supplemented D-MEM without phenol red. Subsequently, 10 µL of 5 mg/mL MTT reagent (Alfa Aesar, Haverhill, MA, USA), dissolved in DMSO, was added to each well, and the cells were incubated for 2 h at 37 °C and 5% CO2. Next, 85 µL of the culture supernatant was removed from each well, mixed with 50 µL of DMSO, and incubated in an optical grade 96-well plate (Fisherbrand, Waltham, MA, USA) in a shaking incubator at 37 °C and 250 rpm. The absorbance of the MTT-treated cell culture supernatant was measured at 540 nm in an ELx808 plate reader (Biotek, Winooski, VT, USA).

[4] = 24 hours, one value per biological replicate, read-out: IC50 of single biological replicates (Figure S2)
[5] = 24 h treatment, mean ± S.D., read-out: IC50

Row | MIC (MRSA ATCC 33591) | MIC (MRSA ATCC BAA-44) | MIC (P. aeruginosa ATCC 27853) | MIC (S. aureus ATCC 25923) | MIC (MRSA USA300LAC [1]) | SMILES | MBC (MRSA USA300LAC [2]) | bactericidal or bacteriostatic effect (MRSA USA300LAC [2]) | IC50 of single biological replicates (Figure S2) ([3]; 24 hours, one value per biological replicate, listed as JC-01-72) | IC50 [3, 4] | IC50 [3, 5] | IC50 of single biological replicates (Figure S2) ([3]; 24 hours, one value per biological replicate, listed as JC-01-74)
1 | 4 µg/mL (≈ 16.3 µM) | 4 µg/mL (≈ 16.3 µM) | > 128 µg/mL | 4 µg/mL (≈ 16.3 µM) | 8 µg/mL (≈ 32.6 µM) | CCCCCCCCCC#Cc1cncc(O)c1 [JC-01-072] | > 128 µg/mL | bacteriostatic; also recorded: no significant killing | 41.1 µg/ml and 27.6 µg/ml and 35 µg/ml | 47.1 µg/mL | 153 ± 33.8 µM | 
2 | 16 µg/mL (≈ 65.2 µM) | 16 µg/mL (≈ 65.2 µM) | > 128 µg/mL | 16 µg/mL (≈ 65.2 µM) | 16 µg/mL (≈ 65.2 µM) | CCCCCCCCCC#Cc1cccc(O)n1 [JC-01-074] | 16 µg/mL (≈ 65.2 µM) | bactericidal |  | 22.9 µg/mL | 104 ± 9.4 µM | 27.1 µg/ml and 26.7 µg/ml
